Measurements published in patent publication EP3722296B1, “DIHYDRONAPHTHYRIDINES AND RELATED COMPOUNDS USEFUL AS KINASE INHIBITORS FOR THE TREATMENT OF PROLIFERATIVE DISEASES” (Deciphera Pharmaceuticals, LLC, priority 2012, dated 2013).

Legend:
[1] = target: T1, c-KIT V654A kinase (Homo sapiens, UniProt P10721, V654A); assay: c-KIT V654A Kinase Assay; format: biochemical; conditions: enzymatic assay, ATP 200 µM
T1 construct: residues T544-V976 with N-terminal GST fusion; purchased deCODE Biostructures
T1 sequence (P10721 544-976 V654A): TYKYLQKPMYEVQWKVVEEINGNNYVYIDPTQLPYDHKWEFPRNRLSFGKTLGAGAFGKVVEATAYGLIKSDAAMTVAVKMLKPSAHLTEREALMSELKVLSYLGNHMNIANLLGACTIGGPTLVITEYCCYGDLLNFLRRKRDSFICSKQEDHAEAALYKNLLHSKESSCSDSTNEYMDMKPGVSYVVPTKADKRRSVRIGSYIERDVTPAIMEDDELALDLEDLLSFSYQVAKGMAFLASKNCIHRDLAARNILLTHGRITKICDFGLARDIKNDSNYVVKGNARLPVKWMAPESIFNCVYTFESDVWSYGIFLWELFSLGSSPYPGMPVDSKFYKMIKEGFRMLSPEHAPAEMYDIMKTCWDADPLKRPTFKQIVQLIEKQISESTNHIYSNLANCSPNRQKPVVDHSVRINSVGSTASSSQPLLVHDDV
Outline: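 Kinase activity tracked by coupled NADH consumption, monitored continuously at 340 nm over 6 h at 30 °C after serially diluted compound was mixed in to start inhibition. Enzyme used was a GST-fused, N-terminally tagged cKIT T544–V976 construct with a TEV cleavage site.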

[2] = target: T2, c-KIT D816H kinase (Homo sapiens, UniProt P10721, D816H); assay: c-KIT D816H Kinase Assay; format: biochemical; conditions: enzymatic assay, ATP 200 µM
T2 construct: The construct contains residues T544-V976 of cKit; GST (N); TEV cleavage site (internal); purchased deCODE Biostructures
T2 sequence (P10721 544-976 D816H): as the sequence (P10721 544-976 V654A) above, with A111V, D273H counted along it
Outline: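 Mutant cKit enzyme, expressed as a GST-fusion construct carrying an N-terminal tag and TEV site, was mixed with serially diluted compound to start reactions. Activity tracked via NADH consumption, read continuously at 340 nm over 6 hours at 30 °C.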

[3] = target: T3, c-KIT T670I kinase (Homo sapiens, UniProt P10721, T670I); assay: c-KIT T670I kinase assay; format: biochemical; conditions: enzymatic assay
T3 construct: The construct contains residues T544-V976 of cKit; GST (N); TEV cleavage site (internal); purchased deCODE Biostructures
T3 sequence (P10721 544-976 T670I): as the sequence (P10721 544-976 V654A) above, with A111V, T127I counted along it
Outline: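 Enzyme: GST-fused, N-terminally tagged cKit bearing T670I, with TEV cleavage site. Reaction started by mixing compound dilutions with reaction mix; activity read continuously over 5 h at 30 °C as loss of 340 nm absorbance from NADH consumption.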

[4] = tested on: Phospho-KIT (Tyr719); assay: GIST430 KIT Western Blot; format: cell-based; conditions: GIST430 cells, 4 hours, serum-free medium; read-out: pKIT suppression by western blot analysi GIST430
Outline: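 GIST430 cells were compound-treated in serum-free Ham's F10, then lysed. Phospho-KIT (Tyr719) was measured by western blot with fluorescence-mode ECL, and blots were reprobed for total KIT; IC50 derived from concentration response.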

[5] = target: T4, Phospho-KIT (Tyr719) (Homo sapiens, UniProt P10721, K642E); assay: GIST882 KIT Western Blot; format: cell-based; conditions: GIST882 cells, 4 hours, serum-free medium; read-out: pKIT suppression by western blot analysi GIST 882
T4 construct: endogenous in cells; host or cells: GIST882
T4 sequence (P10721 26-976 K642E): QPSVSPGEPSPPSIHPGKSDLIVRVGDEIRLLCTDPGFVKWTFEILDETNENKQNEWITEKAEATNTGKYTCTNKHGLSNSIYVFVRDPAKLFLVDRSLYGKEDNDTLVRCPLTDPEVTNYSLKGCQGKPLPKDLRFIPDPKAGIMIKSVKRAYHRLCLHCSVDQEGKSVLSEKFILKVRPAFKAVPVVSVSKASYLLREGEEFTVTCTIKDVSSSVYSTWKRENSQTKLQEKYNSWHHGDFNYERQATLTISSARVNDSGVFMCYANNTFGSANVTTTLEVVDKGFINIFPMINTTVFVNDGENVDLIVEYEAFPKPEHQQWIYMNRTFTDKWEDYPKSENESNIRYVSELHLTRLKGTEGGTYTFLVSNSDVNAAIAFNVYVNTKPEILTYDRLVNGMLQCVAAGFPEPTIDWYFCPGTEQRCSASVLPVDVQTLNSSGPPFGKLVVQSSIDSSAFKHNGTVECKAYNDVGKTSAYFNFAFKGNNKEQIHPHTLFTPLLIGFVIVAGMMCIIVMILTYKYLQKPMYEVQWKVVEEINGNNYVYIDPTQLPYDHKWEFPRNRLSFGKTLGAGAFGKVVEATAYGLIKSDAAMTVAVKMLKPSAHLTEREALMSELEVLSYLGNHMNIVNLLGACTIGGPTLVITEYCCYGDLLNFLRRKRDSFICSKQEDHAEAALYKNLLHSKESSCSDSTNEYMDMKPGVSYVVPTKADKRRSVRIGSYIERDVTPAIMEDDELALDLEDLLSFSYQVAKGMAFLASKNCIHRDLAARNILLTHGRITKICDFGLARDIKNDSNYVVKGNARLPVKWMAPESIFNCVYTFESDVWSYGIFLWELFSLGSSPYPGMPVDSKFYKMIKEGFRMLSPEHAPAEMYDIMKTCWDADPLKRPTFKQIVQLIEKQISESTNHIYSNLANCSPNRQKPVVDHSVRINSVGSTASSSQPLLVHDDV
Outline: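 Phospho-KIT (Tyr719) was immunoblotted on PVDF and imaged in fluorescence mode after ECL Plus, with stripping and reprobing for total KIT. IC50 values were derived from the blot signals.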

[6] = target: c-KIT kinase (Homo sapiens, UniProt P10721); assay: c-KIT kinase Assay; format: biochemical; set-up: cKIT residues T544-V976; GST (N); TEV cleavage site (internal); purchased deCODE Biostructures; conditions: enzymatic assay, ATP 200 µM; read-out: KIT (wt) IC50
Chain of c-KIT kinase (P10721 544-976): as the sequence (P10721 544-976 V654A) above, with A111V counted along it
Outline: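 This continuous spectrophotometric assay tracked c-KIT kinase turnover through NADH consumption at 340 nm, recorded for 2 hours at 30 °C. The enzyme construct from deCODE Biostructures carried an N-terminal tag, a GST-fusion sequence and a TEV cleavage site. Percent inhibition came from reaction rates over 0 to 1 h relative to a no-compound control, and IC50 values were derived with GraphPad Prism.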

Structure (SMILES)	IC50 [1] [nM]	IC50 [2] [nM]	IC50 [3] [nM]	IC50 [4] [nM]	IC50 [5] [nM]	IC50 [6] [nM]
CNc1cc2c(cn1)cc(-c1cc(NC(=O)Nc3ccccc3)c(F)cc1Cl)c(=O)n2C(C)C [Example 22, 1-(4-chloro-2-fluoro-5-(1-isopropyl-7-(methylamino)-2-oxo-1,2-dihydro-1,6-naphthyridin-3-yl)phenyl)-3-phenylurea]	10 to 100	10 to 100	100 to 1000	10 to 100	10 to 100	< 10
CCn1c(=O)c(-c2cc(NC(=O)Nc3cccc4ccccc34)c(F)cc2Cl)cc2cnc(NC)cc21 [Example 6, 1-(4-chloro-5-(1-ethyl-7-(methylamino)-2-oxo-1,2-dihydro-1,6-naphthyridin-3-yl)-2-fluorophenyl)-3-(naphthalen-1-yl)urea]	10 to 100	10 to 100	< 10	< 10	10 to 100	< 10
CCn1c(=O)c(-c2cc(NC(=O)Nc3cccc(F)c3)c(F)cc2Cl)cc2cnc(N)cc21 [Example 20, 1-(5-(7-amino-1-ethyl-2-oxo-1,2-dihydro-1,6-naphthyridin-3-yl)-4-chloro-2-fluorophenyl)-3-(3-fluorophenyl)urea]	10 to 100	< 10	< 10	10 to 100	10 to 100	< 10
CCn1c(=O)c(-c2cc(NC(=O)Nc3ccccc3F)c(F)cc2Cl)cc2cnc(NC)cc21 [Example 25, 1-[4-chloro-5-(1-ethyl-7-methylamino-2-oxo-1,2-dihydro-[1,6]naphthyridin-3-yl)-2-fluoro-phenyl]-3-(2-fluoro-phenyl)-urea]	< 10	10 to 100	< 10	10 to 100	10 to 100	< 10
CCn1c(=O)c(-c2cc(NC(=O)Nc3cc(F)cc(F)c3)c(F)cc2Cl)cc2cnc(NC)cc21 [Example 55, 1-(4-chloro-5-(1-ethyl-7-(methylamino)-2-oxo-1,2-dihydro-1,6-naphthyridin-3-yl)-2-fluorophenyl)-3-(3,5-difluorophenyl)urea]	10 to 100	< 10	10 to 100	10 to 100	10 to 100	10 to 100
CCn1c(=O)c(-c2cc(NC(=O)Nc3cccc(F)c3)c(F)cc2C)cc2cnc(N)cc21 [Example 58, 1-(5-(7-amino-1-ethyl-2-oxo-1,2-dihydro-1,6-naphthyridin-3-yl)-2-fluoro-4-methylphenyl)-3-(3-fluorophenyl)urea]	< 10	< 10	10 to 100	10 to 100	100 to 1000	< 10
CCn1c(=O)c(-c2cc(NC(=O)Nc3cc(F)cc(F)c3)c(F)cc2Cl)cc2cnc(NC(C)=O)cc21 [Example 67, N-(3-(2-chloro-5-(3-(3,5-difluorophenyl)ureido)-4-fluorophenyl)-1-ethyl-2-oxo-1,2-dihydro-1,6-naphthyridin-7-yl)acetamide]	10 to 100	< 10	< 10	< 10	10 to 100	10 to 100
CCn1c(=O)c(-c2cc(NC(=O)Nc3cccc(F)c3)c(F)cc2Cl)cc2cnc(NC)cc21 [Example 24, 1-[4-chloro-5-(1-ethyl-7-methylamino-2-oxo-1,2-dihydro-[1,6]naphthyridin-3-yl)-2-fluoro-phenyl]-3-(3-fluoro-phenyl)-urea]	< 10	< 10	< 10	< 10	10 to 100	< 10
CCn1c(=O)c(-c2cc(NC(=O)Nc3csc4ccccc34)c(F)cc2C)cc2cnc(NC)cc21 [Example 59, 1-(benzo[b]thiophen-3-yl)-3-(5-(1-ethyl-7-(methylamino)-2-oxo-1,2-dihydro-1,6-naphthyridin-3-yl)-2-fluoro-4-methylphenyl)urea]	10 to 100	10 to 100	10 to 100	10 to 100	10 to 100	10 to 100
CCn1c(=O)c(-c2cc(NC(=O)Nc3cccc(F)c3F)c(F)cc2Cl)cc2cnc(NC)cc21 [Example 4, 1-(4-chloro-5-(1-ethyl-7-(methylamino)-2-oxo-1,2-dihydro-1,6-naphthyridin-3-yl)-2-fluorophenyl)-3-(2,3-difluorophenyl)urea]	< 10	< 10	10 to 100	10 to 100	< 10	< 10
CCn1c(=O)c(-c2cc(NC(=O)Nc3ccccc3)c(F)cc2C)cc2cnc(NC(=O)N(C)C)cc21 [Example 101, 3-(1-ethyl-3-(4-fluoro-2-methyl-5-(3-phenylureido)phenyl)-2-oxo-1,2-dihydro-1,6-naphthyridin-7-yl)-1,1-dimethylurea]	10 to 100	10 to 100	10 to 100	10 to 100	100 to 1000	10 to 100
CCn1c(=O)c(-c2cc(NC(=O)Nc3csc4ccccc34)c(F)cc2Cl)cc2cnc(NC)cc21 [Example 32, 1-(benzo[b]thiophen-3-yl)-3-(4-chloro-5-(1-ethyl-7-(methylamino)-2-oxo-1,2-dihydro-1,6-naphthyridin-3-yl)-2-fluorophenyl)urea]	10 to 100	< 10	10 to 100	< 10	10 to 100	< 10
CCn1c(=O)c(-c2cc(NC(=O)Nc3ccccc3)c(F)cc2Cl)cc2cnc(NCCOC)cc21 [Example 27, 1-(4-chloro-5-(1-ethyl-7-(2-methoxyethylamino)-2-oxo-1,2-dihydro-1,6-naphthyridin-3-yl)-2-fluorophenyl)-3-phenylurea]	10 to 100	10 to 100	10 to 100	10 to 100	100 to 1000	< 10
